15 compounds from patent publication US8354419B2, “Benzimidazole analogues for the treatment or prevention of flavivirus infections” (Vertex Pharmaceuticals Incorporated, priority 2009, dated 2013) can be followed below.

This test deals with HCV (Ib) RNA replication. The experiment in a line: Cell-based luciferase reporter HCV (1b) RNA replication assay (replicon cell lines Huh-7 5.2 and ET). Details: species or system Hepatitis C virus. The settings on record: Hepatitis C virus, Huh-7, 96 h, HCV 1b genotype replicon, luciferase readout, 4 days incubation; read-out: EC50_1b. A digest of the protocol: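 Huh-7-derived 5.2 or ET replicon cells carrying a firefly luciferase reporter were seeded at ~3000 cells/well in medium without G418 or phenol red. Compound was added after 3-4 h, followed by 4 days at 37 °C. Luciferase readout was used, with IC50 fitted by nonlinear regression from eleven concentrations in duplicate.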

With `COC(=O)N(C)[C@H](C(=O)N1C[C@@H](C)C[C@H]1c1nc2cc(-c3cc4sc(-c5ccc6[nH]c([C@@H]7C[C@H](C)CN7C(=O)[C@H](C(C)C)N(C)C(=O)OC)nc6c5)cc4s3)ccc2[nH]1)C(C)C` [Compound 260], the EC50 is at most 5 nM.
Turning to `COC(=O)N[C@H](C(=O)N1C[C@H](C)C[C@H]1c1nc2cc(-c3ccc(-c4ccc5[nH]c([C@@H]6C[C@@H](C)CN6C(=O)[C@@H](NC(=O)OC)C(C)C)nc5c4)c(C)c3)ccc2[nH]1)C(C)C` [Compound 261], the EC50 is at most 5 nM.
The value for `COC(=O)N[C@H](C(=O)N1C[C@@H](C)C[C@H]1c1nc2cc(-c3ccc(-c4ccc5[nH]c([C@@H]6C[C@H](C)CN6C(=O)[C@@H](Nc6ncccn6)C(C)C)nc5c4)cc3)ccc2[nH]1)C(C)C` [Compound 262] was at most 5 nM.
The value for `COC(=O)N[C@H](C(=O)N1C[C@@H](C)C[C@H]1c1nc2ccc(-c3ccc(-c4ccc(-c5ccc6nc([C@@H]7C[C@H](C)CN7C(=O)[C@@H](NC(=O)OC)C(C)C)[nH]c6c5)cc4)cc3)cc2[nH]1)C(C)C` [Compound 263] was at most 5 nM; that for `COC(=O)N[C@H](C(=O)N1C[C@@H](C)C[C@H]1c1nc2cc(-c3cc4sc(-c5ccc6[nH]c([C@@H]7C[C@H](C)CN7C(=O)[C@H](C(C)C)N(C)C(=O)OC)nc6c5)cc4s3)ccc2[nH]1)C(C)C` [Compound 264] was at most 5 nM; that for `COC(=O)N[C@H](C(=O)N1C[C@@H](O)C[C@H]1c1nc2cc(-c3ccc(-c4ccc5[nH]c([C@@H]6C[C@H](O)CN6C(=O)[C@@H](NC(=O)OC)C(C)C)nc5c4)c(C)c3)ccc2[nH]1)C(C)C` [Compound 265] was at most 5 nM.
As for `COC(=O)N(C)[C@H](C(=O)N1C[C@@H](C)C[C@H]1c1nc2cc(-c3ccc(-c4ccc5[nH]c([C@@H]6C[C@H](C)CN6C(=O)[C@H](C(C)C)N(C)C(=O)OC)nc5c4)c(C)c3)ccc2[nH]1)C(C)C` [Compound 266], the EC50 is at most 5 nM.
For the compound `COC(=O)N[C@H](C(=O)N1CC[C@H](C)[C@H]1c1nc2cc(-c3ccc(-c4ccc5[nH]c([C@@H]6[C@@H](C)CCN6C(=O)[C@@H](NC(=O)OC)C(C)C)nc5c4)cc3)ccc2[nH]1)C(C)C` [Compound 267], the EC50 is at most 5 nM.
Regarding `COC(=O)N[C@H](C(=O)N1C[C@@H](C)C[C@H]1c1nc2cc(-c3ccc(-c4ccc5[nH]c([C@@H]6C[C@H](C)CN6C(=O)[C@@H](NC(=O)OC)C(C)C)nc5c4)c(C(=O)OC)c3)ccc2[nH]1)C(C)C` [Compound 268], the EC50 was at most 5 nM.
For `COC(=O)N[C@H](C(=O)N1C(C)CC[C@H]1c1nc2cc(-c3ccc(-c4ccc5[nH]c([C@@H]6CCC(C)N6C(=O)[C@@H](NC(=O)OC)C(C)C)nc5c4)cc3)ccc2[nH]1)C(C)C` (stereo partly drawn) [Compound 269], the EC50 was at most 5 nM.
With `COC(=O)N[C@H](C(=O)N1C[C@@H](C)C[C@H]1c1nc2cc(-c3ccc(-c4ccc5nc([C@@H]6C[C@H](C)CN6C(=O)[C@@H](NC(=O)OC)C(C)C)[nH]c5c4)cc3C(=O)O)ccc2[nH]1)C(C)C` [Compound 270], the EC50 fell in the range of 5 to 5000 nM.
The value for `COC(=O)N[C@H](C(=O)N1C[C@@H](C)C[C@H]1c1nc2cc(-c3ccc(-c4ccc5nc([C@@H]6CCCN6C(=O)[C@@H](NC(=O)OC)C(C)C)n(C)c5c4)cc3)ccc2[nH]1)C(C)C` [Compound 271] was at most 5 nM; that for `COC(=O)N[C@H](C(=O)N1CCC[C@H]1c1nc2cc(-c3ccc(-c4ccc5[nH]c([C@@H]6C[C@H](C)CN6C(=O)[C@@H](NC(=O)OC)C(C)C)nc5c4)cc3)ccc2[nH]1)C(C)C` [Compound 272] was at most 5 nM; that for `CC(C)(C)OC(=O)N1CCC[C@H]1c1nc2cc(N3CCCN(c4ccc5nc([C@@H]6CCCN6C(=O)OC(C)(C)C)[nH]c5c4)CC3)ccc2[nH]1` [Compound 273] was above 5000 nM.
The value for `COC(=O)N(C)[C@H](C(=O)N1C[C@@H](C)C[C@H]1c1nc2ccc(C#CC#Cc3ccc4nc([C@@H]5C[C@H](C)CN5C(=O)[C@H](C(C)C)N(C)C(=O)OC)[nH]c4c3)cc2[nH]1)C(C)C` [Compound 274] was at most 5 nM.
